Source: PubChem BioAssay (NCI)
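Compound exposure: 48 hours, 5 concentrations, 96-well plates. At the GI50, growth is halved. The concentration for full growth arrest is given as TGI.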

Tests used:
Test in all cases: NCI tumour cell line growth inhibition, 48 h
SF-268 CNS = tested on: SF-268 CNS
SR leukemia = tested on: SR leukemia
NCI-H226 lung = tested on: NCI-H226 lung
PC-3 prostate = tested on: PC-3 prostate
HS 578T breast = tested on: HS 578T breast
ACHN renal = tested on: ACHN renal
DMS 273 small cell lung = tested on: DMS 273 small cell lung
MCF7 breast = tested on: MCF7 breast
P388 leukemia = tested on: P388 leukemia
M19-MEL melanoma = tested on: M19-MEL melanoma
DMS 114 small cell lung = tested on: DMS 114 small cell lung
SNB-78 CNS = tested on: SNB-78 CNS
KM20L2 colon = tested on: KM20L2 colon
M14 melanoma = tested on: M14 melanoma

SMILES | GI50 (SF-268 CNS) [µM] | TGI (SF-268 CNS) [µM] | GI50 (SR leukemia) [µM] | TGI (SR leukemia) [µM] | GI50 (NCI-H226 lung) [µM] | TGI (NCI-H226 lung) [µM] | GI50 (PC-3 prostate) [µM] | TGI (PC-3 prostate) [µM] | GI50 (HS 578T breast) [µM] | TGI (HS 578T breast) [µM] | GI50 (ACHN renal) [µM] | TGI (ACHN renal) [µM] | TGI (DMS 273 small cell lung) [µM] | TGI (MCF7 breast) [µM] | TGI (P388 leukemia) [µM] | TGI (M19-MEL melanoma) [µM] | TGI (DMS 114 small cell lung) [µM] | TGI (SNB-78 CNS) [µM] | TGI (KM20L2 colon) [µM] | TGI (M14 melanoma) [µM]
CCCC(C)c1ccc(OCCCCCCN2CCNCC2)cc1 (stereo not given) | 2.97 | 9.89 | 1.7 | 4.21 | 9.26 | 35.8 | 2.02 | 4.94 | 1.87 | 4.74 | 2.23 | 5.32 | – | – | – | – | – | – | – | –
O=C1C=C(C2OC(CO)C(O)C2O)C(=O)N1 (stereo not given) | – | > 100 | – | – | – | > 100 | – | – | – | – | – | – | > 100 | > 100 | 60.9 | > 100 | > 100 | > 100 | > 100 | –
CN(C)CCNC(=O)c1cccc2c(=O)c3ccccc3oc12 | – | > 100 | – | – | – | 76.5 | – | – | – | – | – | – | > 91.2 | 74 | 52.2 | 56.7 | > 69.8 | > 100 | > 100 | –
O=C(c1ccccc1)c1ccc2n[se]nc2c1 | – | > 100 | – | – | – | – | – | – | – | – | – | > 100 | > 100 | – | – | – | 60 | > 100 | > 100 | > 100
CC(=O)C(C(c1ccccc1)N1CCOCC1)N1CCOCC1 (stereo not given) | – | > 100 | – | > 100 | – | > 100 | – | > 100 | – | > 100 | – | > 100 | – | > 100 | – | – | – | – | – | > 100
CCOP(=Nc1ccc(N(C)C)cc1)(OCC)OCC | – | > 100 | – | – | – | – | – | > 100 | – | > 100 | – | > 100 | – | > 100 | – | – | – | – | – | > 100
CC1=C2C(O)C(C(C)C(=O)N(C)C)CCC2(C)C=CC1=O (stereo not given) | – | > 100 | – | – | – | > 100 | – | – | – | – | – | – | > 100 | > 100 | > 100 | > 100 | > 100 | > 100 | > 100 | –
Cc1ccc(S(=O)(=O)Nc2cccc3c(=O)[nH]cnc23)cc1 | – | > 100 | – | > 100 | – | > 100 | – | – | – | – | – | > 100 | > 100 | – | – | > 100 | > 100 | > 100 | > 100 | > 100
